Assays:
[1] = test system: TRB3/p62 PPIs in lung tissue; assay: Co-IP, western blot and q-PCR of lung tissues from bleomycin mice; assay type: in vivo; settings: i.v.
Experimental: We attempted to elucidate the mechanism of Ac-GFFY-A2 peptide nanofibers in ameliorating bleomycin-induced lung fibrosis at the molecular level. The nanofibers were administered to the lung fibrosis mice model via intravenous (i.v.) injection, saline treatment as the control group. The mice were sacrificed on day 21 and lung tissues were harvested for the following detection. […] Those results confirmed the potential therapeutic efficacy of peptide nanofibers in pulmonary fibrosis at both the transcriptional and translational levels. […] Gene expression was determined relative to that of the endogenous reference gene (Gapdh) using the 2^-ΔΔCt method. […] The protein concentration was measured using BCA Protein Assay Kit (Thermo Scientific). […] The protein transferred PVDF membranes were incubated with following primary antibodies at 4°C overnight: Then the membranes were incubated with horseradish peroxidase (HRP)-conjugated secondary antibodies at room temperature for 1 h, and protein signals were detected using an enhanced chemiluminescence kit (Pierce). […] The co -precipitates were resolved using SDS-PAGE and detected with immunoblotting. […] Fluorescence imaging was performed using a IVIS Lumina II imaging (PerkinElmer, USA) at different time point post injection. […]

MRC-5 cells = assay: Cell migration, invasion and wound-healing assay; assay type: cell-based, human; settings: MRC-5 cells stimulated by TGF-β1, peptide 50 µM, 24 h transwell, 48 h wound closure, n = 3
Experimental: For wound healing, cell monolayers were scratched with pipette tip. Cells were incubated with or without 10 ng ml^−1 recombinant human TGF‐β1. Ac‐GFFY‐A2 (50 µM) or A2 (50 µM) was added to the medium 1 h behind to TGF‐β1 stimulation. Images were captured at 0 and 48 h after scratching, and the lesion area was measured with Image J software. Cell invasion assay was performed using transwell chambers (8‐µm pore size, Millipore). Chambers were pre‐coated with Matrigel (30 µg per well, BD). Cells were seeded into the chamber with MEM supplemented with 0.1% FBS, and the lower well was added MEM supplemented with 20% FBS. After incubated for 24 h, non‐invaded cells on the upside were removed with cotton swap, and invaded cells were fixed with 4% paraformaldehyde, stained with 0.5% crystal violet, and then photographed under a microscope. The crystal violet stain was eluted in alcohol and quantified at OD540 nm. […]
MRC-5 cells were seeded on a 6-well plate at a density of 6×10^4 cells per well then cultured for 12 hours to adhere the walls. […] The cells were collected and centrifuged, finally the cellular uptake was measured by flow cytometry. […]
Images were captured at 0 h and 48 h after scratching, and the lesion area was measured with Image J software. […] The crystal violet stain was eluted in alcohol and quantified at OD540 nm. […]

**Q.** How did the “mRNA expression levels of Col 1, FN and α-SMA in lung tissues (q-PCR)” value ([1]; day 21, versus saline treatment control group) turn out when Ac-GFFYGGWLTRLLQTK-OH [Ac-GFFY-A2] was run?
**A.** Its value is “significantly lower”.

**Q.** And the “TRB3/p62 interaction in lung tissue (co-IP)” value ([1]; lung tissues harvested on day 21)?
**A.** The value was “could disturb the interaction between TRB3 and p62 in lung tissue”.

**Q.** And the “rate of migration and invasion” value (MRC-5 cells)?
**A.** Its value is “decline in the rate of migration and invasion”.

— paper PMC11267363, “Supramolecular Nanofibers Ameliorate Bleomycin‐Induced Pulmonary Fibrosis by Restoring Autophagy” (Advanced Science, 2024)
